Assay results from PubChem BioAssay (NCI).
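Assay format: 96-well plates, 48-hour exposure. GI50: concentration for 50% inhibition of growth. TGI: concentration producing complete growth inhibition.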

What was measured:
Assay in all cases: NCI anticancer screen, dose series, 48 h
[1] = system: 786-0 renal
[2] = system: A498 renal
[3] = system: A549 NSCLC
[4] = system: ACHN renal
[5] = system: BT-549 breast
[6] = system: CAKI-1 renal
[7] = system: CCRF-CEM leukemia
[8] = system: COLO 205 colon
[9] = system: DU-145 prostate
[10] = system: EKVX NSCLC
[11] = system: HCC-2998 colon
[12] = system: HCT-116 colon
[13] = system: HCT-15 colon
[14] = system: HOP-62 NSCLC
[15] = system: HOP-92 NSCLC
[16] = system: HS 578T breast
[17] = system: HT29 colon
[18] = system: IGROV1 ovarian
[19] = system: K-562 leukemia
[20] = system: KM12 colon
[21] = system: LOX IMVI melanoma
[22] = system: M14 melanoma
[23] = system: MALME-3M melanoma
[24] = system: MCF7 breast
[25] = system: MDA-MB-231 breast
[26] = system: MDA-MB-435
[27] = system: MOLT-4 leukemia
[28] = system: NCI-H226 lung
[29] = system: NCI-H23 lung
[30] = system: NCI-H460 lung
[31] = system: NCI-H522 lung
[32] = system: NCI/ADR-RES ovarian
[33] = system: OVCAR-3 ovarian
[34] = system: OVCAR-4 ovarian
[35] = system: OVCAR-5 ovarian
[36] = system: OVCAR-8 ovarian
[37] = system: PC-3 prostate
[38] = system: RPMI-8226 leukemia
[39] = system: RXF 393 renal
[40] = system: SF-268 CNS
[41] = system: SF-295 CNS
[42] = system: SF-539 CNS
[43] = system: SK-MEL-28 melanoma
[44] = system: SK-MEL-5 melanoma
[45] = system: SN12C renal
[46] = system: SNB-19 CNS
[47] = system: SNB-75 CNS
[48] = system: SW-620 colon
[49] = system: T-47D breast
[50] = system: TK-10 renal
[51] = system: U251 CNS
[52] = system: UACC-257 melanoma
[53] = system: UACC-62 melanoma
[54] = system: UO-31 renal
[55] = system: HL-60(TB) leukemia
[56] = system: SK-MEL-2 melanoma
[57] = system: SK-OV-3 ovarian
[58] = system: SR leukemia

In the case of `C=C(C)[C@@H]1CCC2=C[C@@H](OC2=O)[C@@H](C(=C)C)C(=O)/C=C(/C)C(=O)C1`, the GI50 [1] is reported as 35.5 µM, the TGI [1] is reported as > 100 µM and the GI50 [2] is reported as 26.7 µM. For the same molecule, the TGI [2] was 69.6 µM, the GI50 [3] was 36.9 µM and the TGI [3] was > 100 µM. The GI50 [4] was 37.3 µM, the TGI [4] was > 100 µM and the GI50 [5] was 44.8 µM. The TGI [5] was > 100 µM, the GI50 [6] was 25.4 µM and the TGI [6] was 60.9 µM. It also gave a GI50 [7] of 4.78 µM, a TGI [7] of 28.8 µM and a GI50 [8] of 26.3 µM. The TGI [8] was 56.8 µM, the GI50 [9] was 34.9 µM and the TGI [9] was > 100 µM. The GI50 [10] was 52.4 µM, the TGI [10] was > 100 µM and the GI50 [11] was 26.2 µM. The TGI [11] was 62.2 µM, the GI50 [12] was 16.1 µM and the TGI [12] was 42 µM. The GI50 [13] was 24.1 µM, the TGI [13] was 69.7 µM and the GI50 [14] was 36.2 µM. For the same molecule, the TGI [14] was > 100 µM, the GI50 [15] was 17.4 µM and the TGI [15] was 58.2 µM. For the same molecule, the GI50 [16] was 35.1 µM, the TGI [16] was > 100 µM and the GI50 [17] was 41.8 µM. The TGI [17] was > 100 µM, the GI50 [18] was 40.9 µM and the TGI [18] was > 100 µM. For the same molecule, the GI50 [19] was 18.7 µM, the TGI [19] was > 100 µM and the GI50 [20] was 24.8 µM. The TGI [20] was 63.7 µM, the GI50 [21] was > 100 µM and the TGI [21] was > 100 µM. The GI50 [22] was 20.8 µM, the TGI [22] was 50.5 µM and the GI50 [23] was 23.8 µM. For the same molecule, the TGI [23] was 71.5 µM, the GI50 [24] was 35.3 µM and the TGI [24] was > 100 µM. The GI50 [25] was 45.2 µM, the TGI [25] was > 100 µM and the GI50 [26] was 38.8 µM. The TGI [26] was > 100 µM, the GI50 [27] was 14 µM and the TGI [27] was 47 µM. The GI50 [28] was 36.9 µM, the TGI [28] was > 100 µM and the GI50 [29] was 22.6 µM. For the same molecule, the TGI [29] was 60.4 µM, the GI50 [30] was 29.1 µM and the TGI [30] was 92.2 µM. For the same molecule, the GI50 [31] was 34.4 µM, the TGI [31] was > 100 µM and the GI50 [32] was 37 µM. The TGI [32] was > 100 µM, the GI50 [33] was 22.6 µM and the TGI [33] was 57.8 µM. For the same molecule, the GI50 [34] was 71.6 µM, the TGI [34] was > 100 µM and the GI50 [35] was 70.6 µM. The TGI [35] was > 100 µM, the GI50 [36] was 49 µM and the TGI [36] was > 100 µM. The GI50 [37] was 8.79 µM, the TGI [37] was 39.3 µM and the GI50 [38] was 1.76 µM. The TGI [38] was 17.1 µM, the GI50 [39] was 22.4 µM and the TGI [39] was 53.3 µM. The GI50 [40] was 30 µM, the TGI [40] was > 100 µM and the GI50 [41] was 35.9 µM. For the same molecule, the TGI [41] was > 100 µM, the GI50 [42] was 36.5 µM and the TGI [42] was 95.4 µM. It also gave a GI50 [43] of 34.8 µM, a TGI [43] of 87.5 µM and a GI50 [44] of 18.6 µM. It also gave a TGI [44] of 39.4 µM, a GI50 [45] of 28.6 µM and a TGI [45] of 77.3 µM. The GI50 [46] was 33.8 µM, the TGI [46] was > 100 µM and the GI50 [47] was > 100 µM. The TGI [47] was > 100 µM, the GI50 [48] was 24.7 µM and the TGI [48] was 68.4 µM. The GI50 [49] was 51.1 µM, the TGI [49] was > 100 µM and the GI50 [50] was 31.3 µM. The TGI [50] was 90.9 µM, the GI50 [51] was 33.4 µM and the TGI [51] was > 100 µM. The GI50 [52] was 58.3 µM, the TGI [52] was > 100 µM and the GI50 [53] was 24.8 µM. The TGI [53] was 61.1 µM, the GI50 [54] was 42.2 µM and the TGI [54] was > 100 µM.

For `COc1ccc(Cc2cnc(NC(=O)c3sc4ccccc4c3Cl)s2)cc1`, the GI50 [1] was 0.652 µM, the TGI [1] was > 100 µM and the GI50 [2] was 0.222 µM. The TGI [2] was 12.7 µM, the GI50 [3] was 0.571 µM and the TGI [3] was > 100 µM. The GI50 [4] was 0.808 µM, the TGI [4] was > 100 µM and the GI50 [5] was 1.18 µM. The TGI [5] was > 100 µM, the GI50 [6] was 0.487 µM and the TGI [6] was > 100 µM. For the same molecule, the GI50 [7] was 0.402 µM, the TGI [7] was > 100 µM and the GI50 [8] was 0.39 µM. For the same molecule, the TGI [8] was 13.3 µM, the GI50 [9] was 0.37 µM and the TGI [9] was > 100 µM. For the same molecule, the GI50 [10] was 0.48 µM, the TGI [10] was > 100 µM and the GI50 [11] was 0.547 µM. For the same molecule, the TGI [11] was > 100 µM, the GI50 [12] was 0.408 µM and the TGI [12] was > 100 µM. The GI50 [13] was 0.378 µM, the TGI [13] was > 100 µM and the GI50 [55] was 0.256 µM. The TGI [55] was 0.642 µM, the GI50 [14] was 0.513 µM and the TGI [14] was > 100 µM. For the same molecule, the GI50 [15] was 5.26 µM, the TGI [15] was > 100 µM and the GI50 [16] was 0.336 µM. The TGI [16] was > 100 µM, the GI50 [17] was 0.37 µM and the TGI [17] was > 100 µM. The GI50 [18] was 0.608 µM, the TGI [18] was > 100 µM and the GI50 [19] was 0.289 µM. For the same molecule, the TGI [19] was > 100 µM, the GI50 [20] was 0.383 µM and the TGI [20] was > 100 µM. The GI50 [21] was 1.52 µM, the TGI [21] was > 100 µM and the GI50 [23] was 0.81 µM. The TGI [23] was > 100 µM, the GI50 [24] was 0.355 µM and the TGI [24] was > 100 µM. For the same molecule, the GI50 [25] was 0.585 µM, the TGI [25] was > 100 µM and the GI50 [27] was 0.484 µM. For the same molecule, the TGI [27] was > 100 µM, the GI50 [28] was 1.43 µM and the TGI [28] was > 100 µM. The GI50 [29] was 0.647 µM, the TGI [29] was > 100 µM and the GI50 [30] was 0.365 µM. For the same molecule, the TGI [30] was > 100 µM, the GI50 [31] was 0.279 µM and the GI50 [32] was 0.342 µM. For the same molecule, the TGI [32] was > 100 µM, the GI50 [34] was 2.82 µM and the TGI [34] was > 100 µM. The GI50 [35] was 0.587 µM, the TGI [35] was > 100 µM and the GI50 [36] was 0.508 µM. For the same molecule, the TGI [36] was > 100 µM, the GI50 [37] was 0.405 µM and the TGI [37] was > 100 µM. The GI50 [38] was 0.435 µM, the TGI [38] was > 42.7 µM and the GI50 [39] was 0.179 µM. The TGI [39] was 0.579 µM, the GI50 [40] was 1.26 µM and the TGI [40] was > 100 µM. The GI50 [41] was 0.383 µM, the TGI [41] was > 100 µM and the GI50 [42] was 0.236 µM. The TGI [42] was 0.674 µM, the GI50 [56] was 0.703 µM and the TGI [56] was > 100 µM. The GI50 [43] was 3.84 µM, the TGI [43] was > 100 µM and the GI50 [44] was 0.335 µM. For the same molecule, the TGI [44] was 3.56 µM, the GI50 [57] was 0.619 µM and the TGI [57] was > 100 µM. The GI50 [45] was 0.687 µM, the TGI [45] was > 100 µM and the GI50 [46] was 0.461 µM. The TGI [46] was > 100 µM, the GI50 [47] was 0.2 µM and the TGI [47] was > 100 µM. The GI50 [58] was 0.31 µM, the TGI [58] was > 100 µM and the GI50 [48] was 0.409 µM. The TGI [48] was > 100 µM, the GI50 [49] was 0.768 µM and the TGI [49] was > 100 µM. The GI50 [50] was 4.31 µM, the TGI [50] was > 100 µM and the GI50 [51] was 0.382 µM. For the same molecule, the TGI [51] was > 100 µM, the GI50 [52] was 25.7 µM and the TGI [52] was > 100 µM. For the same molecule, the GI50 [53] was 0.468 µM, the TGI [53] was > 100 µM and the GI50 [54] was 0.843 µM. For the same molecule, the TGI [54] was > 100 µM.
